Here are results for 25 molecules from patent US20210330650A1, “SPIROCHROMANE DERIVATIVES” (RICHTER GEDEON NYRT., priority 2018, published 2021).

pEC50: −log10 of the molar value.

For one experiment, the target named is T1, human α7 nAchR (Homo sapiens, UniProt P36544).
T1 construct: expressed in transfected cells
Briefly: Human α7 nicotinic acetylcholine receptor [Ca2+]i assay (Ca2+ fluorometry, PAM concentration-response). The experiment is classed as cell-based. As to conditions: Flp-In 293 cells expressing human α7 nAchR and human RIC-3; in presence of saturating agonist (mostly PNU-282987, 1 μM). The method, then:
Human α7 Nicotinic Acetylcholine Receptor [Ca2+]i Assay
Cells: Flp-In 293 cells stably expressing human α7 nAchR and human RIC-3 (α7 cells, generated in house.)
Materials: 96-well plates coated with PDL (Falcon), culture medium, assay buffer, DMSO, FLIPR Calcium 5 kit (Molecular Devices), probenecid, agonist and PAM test compounds.
Brief Description of the Method (Ca^2+ Fluorometry)
α7 cells stably expressing human α7 nAchR were cultured in the medium detailed above, and were split twice a week. For the fluorometric measurements of cytosolic Ca^2+ ion concentration ([Ca^2+]i) cells were seeded in 96-well microplates at a density of 60000 cells/well and maintained overnight in a tissue culture incubator at 37° C. under an atmosphere of 95% air/5% CO2. The plating medium was identical with the culture medium. 50 μl of the growth medium was aspirated with a cell washer (BioTek Elx405UCVWS). Then 50 μl/well Calcium 5 kit diluted 2-fold in assay buffer was added manually using an 8-channel pipette. After an incubation period (20 minutes, 37° C.) 50 μl/well assay buffer containing vehicle (DMSO, 4% added) or reference α7 PAMs (4× of the final concentration) were added manually and the cells were incubated for an additional 10 minutes at 37° C. Baseline and agonist-evoked [Ca^2+]i-changes were monitored with FlexStation II (Molecular Devices, Sunnyvale, Calif.), a plate reader fluorometer with integrated 8-channel fluid addition capability. Fluorescence measurements were carried out at 37° C. The dye was excited at 485 nm, emission was sampled at 525 nm at 1.4-s intervals. Baseline was recorded for 20 seconds followed by agonist stimulation. 50 μl 4× concentrated agonist solution was added to the cells using the pipettor of FlexStation II and fluorescence was monitored for an additional 40 seconds. Final DMSO concentration was 1% for all treatments. To achieve this, a series of DMSO stock solutions were prepared from all test compounds. These stocks were stored under 0° C. and were further diluted in assay buffer to obtain the desired final concentration immediately before the measurement. Agonist and PAM concentration-response studies were conducted in the presence of saturating concentrations of PAMs (mostly PNU-120596, 5 μM) and agonists (mostly PNU-282987, 1 μM), respectively. Results were expressed as ΔF/F values using SoftMax Pro software (Molecular Devices), where F was the resting fluorescence preceding agonist application and ΔF was the increase in fluorescence at a given time (ΔF=maximum fluorescence intensity values after stimulation minus average fluorescence intensity values before stimulation). In all experiments, all treatments were measured in multiple wells in parallel, and the mean ΔF/F values were used for analysis.

A further experiment relates to Male NMRI mice. Put plainly: Place recognition test (Y-maze), reversal of scopolamine-induced amnesia. As to conditions: scopolamine 1 mg/kg i.p. The experiment is classed as in vivo. The method, then: In Vivo Pharmacology (Place Recognition Test)
Animals: Male NMRI mice (Toxicoop, Hungary)
Substances: Scopolamine was dissolved in saline and administered at 1 mg/kg dose i.p. Test compounds were administered 30 minutes before the acquisition trial (T1) and scopolamine after the acquisition trial at a volume of 0.1 ml/10 g.
Procedure: The task was carried out in a transparent plexiglass Y-maze (each arm has a length of 40 cm, an inner width of 11 cm and a height of 30 cm). Numerous visual cues were placed around the arms and were kept constant during the experiment. The test consisted of two trials (T1 and T2) separated by an intertrial interval of 30 minutes. Mice were placed in the starting arm of the maze at the beginning of each trial. In T1, one of the symmetric arms of the maze was closed (it will be novel in T2) and the animals were allowed to explore the maze for 5 minutes (acquisition phase). In T2, mice had free access to all three arms for 2 minutes (retrieval phase). The time spent with exploration in the novel and familiar arms during T2 was measured. Differences between the exploration times spent in the familiar vs. novel arms of the maze for each group were evaluated by MANOVA, followed by Duncan post hoc test.

T1 sequence (P36544 23-502): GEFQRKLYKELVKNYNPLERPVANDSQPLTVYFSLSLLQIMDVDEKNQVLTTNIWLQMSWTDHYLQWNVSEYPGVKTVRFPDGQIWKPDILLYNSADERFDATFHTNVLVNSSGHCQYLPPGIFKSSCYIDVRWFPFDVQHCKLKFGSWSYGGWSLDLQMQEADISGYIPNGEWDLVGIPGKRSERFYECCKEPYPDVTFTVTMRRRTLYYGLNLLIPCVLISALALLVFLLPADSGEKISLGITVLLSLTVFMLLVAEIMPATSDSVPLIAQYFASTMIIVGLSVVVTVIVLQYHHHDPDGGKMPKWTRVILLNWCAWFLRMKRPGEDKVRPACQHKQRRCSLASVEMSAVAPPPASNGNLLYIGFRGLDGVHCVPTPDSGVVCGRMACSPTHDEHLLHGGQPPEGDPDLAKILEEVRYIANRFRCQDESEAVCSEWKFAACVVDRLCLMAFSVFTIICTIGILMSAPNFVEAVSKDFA

Usually pEC50 stands for the negative decadic logarithm of the EC50, by convention in mol/L. In the case of `Cc1cc2cc(CNC(=O)N3CC4(CC(=O)c5ccc(C(F)(F)F)cc5O4)C3)cnc2n1C` [Example 65], the pEC50 at human α7 nAchR is 6.12.

On to `Cn1ccc2cc(CNC(=O)N3CCC4(CC(=O)c5cc(Cl)ccc5O4)C3)ccc21` (racemic) [Example 5], for which the pEC50 at human α7 nAchR was 6.68.

`O=C1CC2(CN(C(=O)NCc3ccc4[nH]ccc4c3)C2)Oc2ccc(Cl)cc21` [Example 26, 6′-chloro-N-[(1H-indol-5-yl)methyl]-4′-oxo-3′,4′-dihydrospiro[azetidine-3,2′-[1]benzopyran]-1-carboxamide]: the “reversal of the scopolamine-induced amnesia in the place recognition assay (exploration time novel vs. familiar arm, significance)” value in the experiment on Male NMRI mice (3 mg/kg i.p.) is listed as “+ (^+p < 0.05)”. Moreover, the pEC50 at human α7 nAchR is 6.41.

As for `Cn1ccc2cc(CNC(=O)N3CC4(CC(=O)c5ccc(C(F)(F)F)cc5O4)C3)ccc21` [Example 52, N-[(1-methyl-1H-indol-5-yl)methyl]-4′-oxo-7′-(trifluoromethyl)-3′,4′-dihydrospiro[azetidine-3,2′-[1]benzopyran]-1-carboxamide], the “reversal of the scopolamine-induced amnesia in the place recognition assay (exploration time novel vs. familiar arm, significance)” value in the experiment with Male NMRI mice (10 mg/kg i.p.) is “+ (^+p < 0.05)”. The pEC50 on human α7 nAchR is 6.89.

For `Cn1ccc2cc(CNC(=O)N3CCC4(CC(=O)c5cc(Cl)ccc5O4)C3)ccc21` (single isomer, unassigned) [Example 5a], the pEC50 on human α7 nAchR was 6.37.

Turning to `Cn1ccc2cc(CNC(=O)N3CC4(CC(=O)c5ccccc5O4)C3)ccc21` [Example 7, N-[(1-methyl-1H-indol-5-yl)methyl]-4′-oxo-3′,4′-dihydrospiro[azetidine-3,2′-[1]benzopyran]-1-carboxamide], the “reversal of the scopolamine-induced amnesia in the place recognition assay (exploration time novel vs. familiar arm, significance)” value with Male NMRI mice (1 mg/kg i.p.), in the experiment on Male NMRI mice (3 mg/kg i.p.) and in the experiment on Male NMRI mice (10 mg/kg i.p.) was “+++ (^+++p < 0.001)” each time. In addition, the pEC50 on human α7 nAchR was 6.64.

For `COc1ccc2c(c1)OC1(CCN(C(=O)NCc3ccc4c(ccn4C)c3)CC1)CC2=O` [Example 21], the pEC50 on human α7 nAchR was 6.55.

With `CN1CCCc2cc(CNC(=O)N3CC4(CC(=O)c5ccc(F)cc5O4)C3)ccc21` [Example 71, 7′-Fluoro-N-[(1-methyl-1,2,3,4-tetrahydroquinolin-6-yl)methyl]-4′-oxo-3′,4′-dihydrospiro[azetidine-3,2′-[1]benzopyran]-1-carboxamide], the pEC50 at human α7 nAchR was 5.64.

As to `Cn1cc(Cl)c2cc(CNC(=O)N3CC4(CC(=O)c5ccccc5O4)C3)ccc21` [Example 37], the pEC50 on human α7 nAchR was 6.89.

Turning to `Cn1ccc2cc(CNC(=O)N3CC4(CC(=O)c5ccc(F)cc5O4)C3)ccc21` [Example 6, 7′-fluoro-N-[(1-methyl-1H-indol-5-yl)methyl]-4′-oxo-3′,4′-dihydrospiro[azetidine-3,2′-[1]benzopyran]-1-carboxamide], the “reversal of the scopolamine-induced amnesia in the place recognition assay (exploration time novel vs. familiar arm, significance)” value in the experiment with Male NMRI mice (1 mg/kg i.p.) is on record as “+ (^+p < 0.05)”; with Male NMRI mice (3 mg/kg i.p.), “++ (^++p < 0.01)”; with Male NMRI mice (10 mg/kg i.p.) it was “+++ (^+++p < 0.001)”. Moreover, the pEC50 at human α7 nAchR was 6.72.

Turning to `Cn1ccc2cc(CNC(=O)N3CC4(CC(=O)c5cc(C(F)(F)F)ccc5O4)C3)ccc21` [Example 50], on human α7 nAchR, the pEC50 is 6.82.

`Cc1cc2cc(CNC(=O)N3CC4(CC(=O)c5cc(F)ccc5O4)C3)ccc2[nH]1` [Example 1, 6′-Fluoro-N-[(2-methyl-1H-indol-5-yl)methyl]-4′-oxo-3′,4′-dihydrospiro[azetidine-3,2′-[1]benzopyran]-1-carboxamide]: the “reversal of the scopolamine-induced amnesia in the place recognition assay (exploration time novel vs. familiar arm, significance)” value with Male NMRI mice (1 mg/kg i.p.) is given as “++ (^++p < 0.01)”. On human α7 nAchR, the pEC50 was 6.92.

For `O=C1CC2(CN(C(=O)NCc3ccc4[nH]c(C(F)F)cc4c3)C2)Oc2cc(F)ccc21` [Example 69, N-{[2-(difluoromethyl)-1H-indol-5-yl]methyl}-7′-fluoro-4′-oxo-3′,4′-dihydrospiro[azetidine-3,2′-[1]benzopyran]-1-carboxamide], the pEC50 at human α7 nAchR is 6.92.

For `Cn1ccc2cc(CNC(=O)N3CCC4(CCc5cc(Cl)ccc5O4)CC3)ccc21` [Example 10, 6-chloro-N-[(1-methyl-1H-indol-5-yl)methyl]-3,4-dihydrospiro[1-benzopyran-2,4′-piperidine]-1′-carboxamide], the pEC50 on human α7 nAchR is 7.00.

As for `COc1ccc2c(c1)C(=O)CC1(CN(C(=O)NCc3ccc4c(c3)c(Cl)cn4C)C1)O2` [Example 25], the pEC50 at human α7 nAchR was 6.64.

Regarding `O=C1CC2(CN(C(=O)NCc3ccc4[nH]c(C(F)(F)F)cc4c3)C2)Oc2cc(F)ccc21` [Example 61, 7′-fluoro-4′-oxo-N-{[2-(trifluoromethyl)-1H-indol-5-yl]methyl}-3′,4′-dihydrospiro[azetidine-3,2′-[1]benzopyran]-1-carboxamide], the “reversal of the scopolamine-induced amnesia in the place recognition assay (exploration time novel vs. familiar arm, significance)” value with Male NMRI mice (3 mg/kg i.p.) is given as “++ (^++p < 0.01)”; with Male NMRI mice (10 mg/kg i.p.), “+++ (^+++p < 0.001)”.

`Cn1ccc2cc(CNC(=O)N3CC4(CC(=O)c5cc(Cl)ccc5O4)C3)ccc21` [Example 3, 6′-chloro-N-[(1-methyl-1H-indol-5-yl)methyl]-4′-oxo-3′,4′-dihydrospiro[azetidine-3,2′-[1]benzopyran]-1-carboxamide]: the pEC50 on human α7 nAchR is 6.92.

With `Cn1cc(Cl)c2cc(CNC(=O)N3CC4(CC(=O)c5cc(F)ccc5O4)C3)cnc21` [Example 39], the pEC50 at human α7 nAchR is 6.14.

In the case of `Cn1cc(Br)c2cc(CNC(=O)N3CC4(CC(=O)c5cc(F)ccc5O4)C3)cnc21` [Example 53], at human α7 nAchR, the pEC50 was 6.07.

As for `Cc1cc2cc(CNC(=O)N3CC4(CC(=O)c5cc(F)cc(F)c5O4)C3)ccc2[nH]1` [Example 41, 6′,8′-difluoro-N-[(2-methyl-1H-indol-5-yl)methyl]-4′-oxo-3′,4′-dihydrospiro[azetidine-3,2′-[1]benzopyran]-1-carboxamide], the “reversal of the scopolamine-induced amnesia in the place recognition assay (exploration time novel vs. familiar arm, significance)” value in the experiment on Male NMRI mice (1 mg/kg i.p.) and in the experiment on Male NMRI mice (3 mg/kg i.p.) was “+ (^+p < 0.05)” throughout. Besides, on human α7 nAchR, the pEC50 was 7.22.

As to `O=C1CC2(CN(C(=O)NCc3ccc4[nH]c(Cl)cc4c3)C2)Oc2cc(Cl)ccc21` [Example 43, 7′-chloro-N-[(2-chloro-1H-indol-5-yl)methyl]-4′-oxo-3′,4′-dihydrospiro[azetidine-3,2′-[1]benzopyran]-1-carboxamide], the figures for the “reversal of the scopolamine-induced amnesia in the place recognition assay (exploration time novel vs. familiar arm, significance)” value with Male NMRI mice (1 mg/kg i.p.), with Male NMRI mice (3 mg/kg i.p.) and in the experiment on Male NMRI mice (10 mg/kg i.p.) were “+ (^+p < 0.05)”, “+++ (^+++p < 0.001)” and “+++ (^+++p < 0.001)”, respectively. Moreover, the pEC50 on human α7 nAchR is 6.44.

Consider `Cn1cc(F)c2cc(CNC(=O)N3CC4(CC(=O)c5cc(F)ccc5O4)C3)ccc21` [Example 38], for which, at human α7 nAchR, the pEC50 is 6.66.

As to `Cn1ccc2cc(CNC(=O)N3CCC4(CC(=O)c5cc(Cl)ccc5O4)C3)ccc21` (single isomer, unassigned) [Example 5b], at human α7 nAchR, the pEC50 is 6.40.

As for `Cn1ccc2cc(CNC(=O)N3CC4(CC(=O)c5ccc(C(F)(F)F)cc5O4)C3)cnc21` [Example 59], on human α7 nAchR, the pEC50 is 6.30.

Consider `Cn1ccc2cc(CNC(=O)N3CC4(CC(=O)c5cc(Cl)cc(Cl)c5O4)C3)cnc21` [Example 58], for which, on human α7 nAchR, the pEC50 was 6.33.
